# Test results: patent US20130337564A1, “Treatment of Pluripotent Cells” (Janssen Biotech, Inc., priority 2012, published 2013)
# Key:
# [1] = test system: Sox17 expression in human embryonic stem cell line H9; assay: Dose titration secondary assay: Sox17 intensity, H9; type: cell-based
# Experimental: (§1) It was important to confirm the activity of hits identified from primary screening and further analyze the range of activity by dose titration. New samples of a selective subset of primary screening hits were obtained as dry powders, solubilized to make fresh stock reagents, and diluted into secondary confirmation assays to evaluate effects on human embryonic stem cells.
# (§2) Culture of two human embryonic stem cells (H1 and H9) was conducted as described in Example 1. Colonies of cells were maintained in an undifferentiated, pluripotent state on Matrigel™ ([…]) coated polystyrene plastic, using a 1:30 dilution of Matrigel™ in DMEM:F12 to coat the surface. Cells were split by enzymatic passage every four days on average. Passage was performed by exposing cell monolayers to a solution of collagenase (1 mg/ml; Sigma-Aldrich) for 10 to 60 minutes at 37° C. followed by gentle scraping with a pipette tip to recover cell clusters. Clusters were allowed to sediment by gravity, then washed to remove residual collagenase. Cell clusters were split at a 1:3 ratio for maintenance culture or a 1:1 ratio for subsequent assay. The human embryonic stem cell lines were maintained at less than passage 50 and routinely evaluated for normal karyotypic phenotype and absence of mycoplasma contamination.
# (§3) Cell clusters of the H1 or H9 human embryonic stem cell lines used in the assay were evenly resuspended in culture medium and plated onto Matrigel™-coated 96-well Packard VIEWPLATES (PerkinElmer) in volumes of 100 μl/well. MEF conditioned medium supplemented with 8 ng/ml bFGF was used for initial plating and expansion. Daily feeding was conducted by aspirating spent culture medium from each well and replacing with an equal volume of fresh medium. Cultures were allowed to expand one to three days after plating prior to initiating assay. Plates were maintained at 37° C., 5% CO2 in a humidified box for the duration of assay.
# (§4) A subset of hits resulting from primary screening was used for follow-up study and subsequent secondary assays. Twenty compounds available as dry powders were solubilized as 10 mM stocks in DMSO and stored dessicated at […] until use Immediately prior to assay, compound stocks were diluted 1:1000 to make 10 μM test compound in DMEM:F12 base medium (Invitrogen) supplemented with 0.5% FCS (HyClone) and 100 ng/ml Activin A (R&D Biosystems). This was further diluted two-fold in series to make a seven point dilution curve for each compound, also in DMEM:F12 base medium with 0.5% FCS and 100 ng/ml Activin A.
# (§5) Assay was initiated by aspirating culture medium from cell monolayers in each well followed by three washes in PBS to remove residual growth factors and serum. Test volumes of 100 μl per well were added back containing medium with 0.5% FCS and different concentrations of inhibitor compounds with 100 ng/ml Activin A, without Wnt3a. Positive control wells contained the same base medium with 0.5% FCS and with 20 ng/ml Wnt3a (R&D Biosystems) in the absence of test compound. Negative control wells contained the same base medium with 0.5% FCS, in the absence of Activin A, Wnt3a, or test compound. Assay wells were aspirated and fed again with identical concentrations of test compound or control solutions on day 2 of assay. On days 3 and 4, all assay wells were aspirated and fed with DMEM:F12 supplemented with 2% FCS and 100 ng/ml Activin A in the absence of both test compound or Wnt3a. Parallel negative control wells were maintained on days 3 and 4 in DMEM:F12 base medium with 2% FCS.
# (§6) At the end of culture, cells in 96-well plates were washed twice with PBS then fixed with 4% paraformaldehyde at room temperature for 20 minutes, washed three times more with PBS, and then permeabilized with 0.5% Triton X-100 for 20 minutes at room temperature. After fixing and permeabilizing, cells were washed again three times with PBS and then blocked with 4% chicken serum (Invitrogen) in PBS for 30 minutes at room temperature. […]
# [2] = test system: human embryonic stem cell line H9; assay: Dose titration secondary assay: cell number, H9; type: cell-based
# Experimental: as §1, §2, §3, §4, §5, §6
Structure (SMILES),Sox17 Intensity ([1]; 0.156 μM compound),Sox17 Intensity ([1]; 0.313 μM compound),Sox17 Intensity ([1]; 0.625 μM compound),Sox17 Intensity ([1]; 1.25 μM compound),Sox17 Intensity ([1]; 2.5 μM compound),Sox17 Intensity ([1]; 5 μM compound),Sox17 Intensity ([1]; 10 μM compound),Cell number ([2]; 0.156 μM compound),Cell number ([2]; 0.313 μM compound),Cell number ([2]; 0.625 μM compound),Cell number ([2]; 1.25 μM compound),Cell number ([2]; 2.5 μM compound),Cell number ([2]; 5 μM compound),Cell number ([2]; 10 μM compound)
"CCN1CCOCCOCCn2cc(c3ccccc32)C2=C(C(=O)NC2=O)c2cn(c3ccccc23)CC1 [Compound 103, 14-Ethyl-6,7,9,10,13,14,15,16-octahydro-12H,23H-5,26:17,22-di(metheno)dibenzo[k,q]pyrrolo[3,4-n][1,4,7,10,19]dioxatriacyclohenicosine-23,25(24H)-dione]",0.364,0.577,0.985,0.943,0.559,0.019,0.001,0.458,0.686,0.927,1.011,0.681,0.023,0.001
"CN1CCN(C)CCn2cc(c3ccccc32)C2=C(C(=O)NC2=O)c2cn(c3ccccc23)CC1 [Compound 111, 8,11-Dimethyl-6,7,8,9,10,11,12,13-octahydro-20H-5,23:14,19-di(metheno)dibenzo[k,q]pyrrolo[3,4-n][1,4,7,10]tetraazacyclooctadecine-20,22(21H)-dione]",0.054,0.080,0.268,0.332,0.432,0.543,0.822,0.072,0.100,0.371,0.442,0.600,0.793,1.117
"CN1CCOCCOCCN(C)CCn2cc(c3ccccc32)C2=C(C(=O)NC2=O)c2cn(c3ccccc23)CC1 [Compound 112, 12,21-Dimethyl-11,12,13,14,16,17,20,21,22,23-decahydro-1H,10H,19H-9,4:24,29-di(metheno)dibenzo[k,q]pyrrolo[3,4-n][1,4,7,10,19,22]dioxatetraazacyclotetracosine-1,3(2H)-dione]",0.186,0.342,0.563,0.936,1.146,1.127,0.759,0.276,0.437,0.686,1.039,1.197,1.281,1.022
"O=C1NC(=O)C2=C1c1cn(c3ccccc13)CCOCCOCCN(Cc1cccs1)CCn1cc2c2ccccc21 [Compound 133, 14-(2-Thienylmethyl)-6,7,9,10,13,14,15,16-octahydro-12H,23H-5,26:17,22-di(metheno)dibenzo[k,q]pyrrolo[3,4-n][1,4,7,10,19]dioxatriazacyclohenicosine-23,25(24H)-dione]",0.149,0.398,0.678,1.110,0.857,0.194,0.129,0.206,0.540,0.899,1.477,1.368,1.067,0.785
"O=C1NC(=O)C2=C1c1cn(c3ccccc13)CCOCCOCCN(Cc1cccc3ccccc13)CCn1cc2c2ccccc21 [Compound 136, 14-(Naphthalen-1-ylmethyl)-6,7,9,10,13,14,15,16-octahydro-12H,23H-5,26:17,22-di(metheno)dibenzo[k,q]pyrrolo[3,4-n][1,4,7,10,19]dioxatriazacyclohenicosine-23,25(24H)-dione]",0.125,0.129,0.212,0.202,0.209,0.154,0.129,0.147,0.192,0.267,0.334,0.388,0.320,0.208
